Reference: patent EP2949653A1, “ISOXAZOLE DERIVATIVES AS LEUKOTRIENE BIOSYNTHESIS INHIBITORS” (Banoglu, Erden, priority 2014, dated 2015)

How the values were obtained:
[1] = system: 5-LO mediated product formation; experiment: 5-LO mediated product formation in intact neutrophils stimulated with A23187 (cell-based); parameters: species or system human; settings: for activity at 1 µM / activity at 10 µM: PMNL, human neutrophils, 2.5 µM A23187, means ± SE, n = 3-6; for activity at 1 µM: remaining activity at 1 µM inhibitor, read-out: 5-LO mediated product formation in intact neutrophils (PMNL) (% of control) at 1 µM; for activity at 10 µM: remaining activity at 10 µM inhibitor, read-out: 5-LO mediated product formation in intact neutrophils (PMNL) (% of control) at 10 µM; for IC50: Neutrophil, intact human neutrophils stimulated with 2.5 µM A23187, mean ± SE, n = 3-4, read-out: Inhibition of purified 5-LO activity IC50 (µM) cell based
Experimental: (§1) Cell based and cell-free assays carried out in biological studies, immunofluorescence microscopy analysis and zymosan-induced peritonitis in mice are performed as described hereinabove (Pegola, C. and et al., British J. Pharmacology, 2014, D01:10.1111/bph.12625). In the cell based assays (intact neutrophils or monocytes), 5-LO mediated product formation is started, after pre-incubation with test compounds (or control DMSO) for 15 min. at 37 °C, with addition of Ca-ionophore A23187 (2.5 µM) to the fresh 5 x 10^6 neutrophils or monocytes suspended in 1 ml of PGC buffer (phosphate buffered saline (PBS) solution containing 1 mg ml^-1 glucose and 1mM CaCl2, pH 7.4). After the incubation for 10 min. at 37 °C, the reaction is ended with addition of 1 ml of methanol, and 30 µL 1 N HCl, 200 ng prostaglandin B1 and 500 µL PBS are added to the mixture. In cell-free assays (isolated 5-LO and cell homogenates), human recombinant 5-LO protein or 40,000g supernatant is added to 1 ml of 5-LO reaction mixture (PBS, pH 7.4, 1 mM EDTA, 1 mM ATP), and then incubated with test compounds (or control DMSO) for 10 min. at 4°C, heated to 37 °C and 2 mM CaCl2 as well as AA at certain concentrations are added. The reaction is ended as described for the cell-based assays. Resulting 5-LO mediated products are extracted and analysed by the known method of high pressure liquid chromatography (HPLC) (Pergola, C. Proc Natl. Acad. Sci. U.S.A. 2008, 105, 19881). 5-LO mediated product formation (LTB4 and all trans isomers, and 5 (S)-hydro(pero)xy-6-trans-8, 11, 14-cis-eicosatetraenoic acid, 5-H(p)ETE) is expressed as ng per 10^6 cell. Cysteinyl-LTs have not been analyzed because that the amount of C4, D4 and E4 and LTB4 oxidation products are below the detection limit.
(§2) Compounds were tested in intact human neutrophils stimulated with 2.5 µM A23187 under cell based conditions and on purified 5-LO under cell free conditions. ^aData are given as remaining activity as a percentage of control (100%) at 10 µM or 1 µM inhibitor concentrations (means ± SE, n = 3-6).
Compound 9hj inhibited 5-LO mediated product formation with IC50 of 60 nM in human neutrophils. Neutrophils are stimulated with Ca-ionophore A23187 (2.5 µM), without the addition of exogenous arachidonic acid (AA), after pre-incubation with 9hj or vehicle (0.1 % DMSO). 100% controls correspond to 275.7 ng mL^-1 of 5-LO mediated products (Figure 1).
100% controls correspond to 328.97 ng mL^-1 of 5-LO mediated products.

purified 5-LO = biological target: T1, purified 5-LO (Homo sapiens, UniProt P09917); experiment: Purified / human recombinant 5-LO activity (cell-free); assay type: biochemical; settings: purified 5-LO under cell free conditions; mean ± SE, n = 3-4; read-out: Inhibition of purified 5-LO activity IC50 (µM) cell-free
T1 sequence (P09917 1-674): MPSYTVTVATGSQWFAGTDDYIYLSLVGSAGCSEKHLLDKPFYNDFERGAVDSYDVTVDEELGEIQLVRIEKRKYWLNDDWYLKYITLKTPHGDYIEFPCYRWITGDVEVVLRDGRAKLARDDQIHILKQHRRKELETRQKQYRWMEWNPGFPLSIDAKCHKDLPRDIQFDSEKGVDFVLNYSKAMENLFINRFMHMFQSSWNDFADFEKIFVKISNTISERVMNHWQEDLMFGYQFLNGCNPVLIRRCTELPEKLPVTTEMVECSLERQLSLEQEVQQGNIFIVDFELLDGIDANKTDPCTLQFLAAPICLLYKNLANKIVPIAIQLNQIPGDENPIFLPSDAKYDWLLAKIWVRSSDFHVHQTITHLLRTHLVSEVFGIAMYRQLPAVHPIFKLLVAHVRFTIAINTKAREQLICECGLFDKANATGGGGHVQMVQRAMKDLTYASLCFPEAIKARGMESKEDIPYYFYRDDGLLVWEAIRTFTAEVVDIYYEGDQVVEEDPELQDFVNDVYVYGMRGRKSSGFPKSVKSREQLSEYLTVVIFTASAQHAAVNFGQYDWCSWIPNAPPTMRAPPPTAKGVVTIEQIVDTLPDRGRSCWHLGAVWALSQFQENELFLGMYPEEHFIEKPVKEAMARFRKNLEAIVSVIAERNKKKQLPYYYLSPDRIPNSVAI
Experimental: as §1, §2
9hj was added 15 min before addition of 2 mM Ca^2+ plus 3 µM, 10 µM and 30 µM AA. 100% controls correspond to 200.35 ng mL^-1 for 3 µM AA, 514.36 ng mL^-1 for 10 µM AA and 537.73 ng mL^-1 for 30 µM AA.

Row | SMILES | IC50 (purified 5-LO) [µM] | IC50 [1] [µM] | activity at 1 µM [1] [%] | activity at 10 µM [1] [%]
1 | CCOC(=O)c1noc(-c2ccc(OCc3ccccc3C)cc2)c1-c1ccc(Cl)cc1 [Compound 7aj, Ethyl 4-(4-chlorophenyl)-5-(4-((2-methylbenzyl)oxy)phenyl)isoxazole-3-carboxylate] |  |  | 85.2 ± 0.7 | 71.9 ± 10.3
2 | CCOC(=O)c1noc(-c2ccc(OCc3cccc(F)c3)cc2)c1-c1ccc(Cl)cc1 [Compound 7bj, Ethyl 4-(4-chlorophenyl)-5-(4-((3-fluorobenzyl)oxy)phenyl)isoxazole-3-carboxylate] |  |  | 66.1 ± 14.3 | 55.3 ± 12.1
3 | CCOC(=O)c1noc(-c2ccc(OCc3ccc(C)cc3)cc2)c1-c1ccc(Cl)cc1 [Compound 7cj, Ethyl 4-(4-chlorophenyl)-5-(4-((4-methylbenzyl)oxy)phenyl)isoxazole-3-carboxylate] |  |  | 78.3 ± 16.2 | 61.4 ± 12.4
4 | CCOC(=O)c1noc(-c2ccc(OCc3ccccc3C)cc2)c1-c1cccc(Cl)c1 [Compound 8aj, Ethyl 4-(3-chlorophenyl)-5-(4-((2-methylbenzyl)oxy)phenyl)isoxazole-3-carboxylate] |  |  | 88 ± 10.2 | 83.4 ± 16.2
5 | CCOC(=O)c1noc(-c2ccc(OCc3cccc(F)c3)cc2)c1-c1cccc(Cl)c1 [Compound 8bj, Ethyl 4-(3-chlorophenyl)-5-(4-((3-fluorobenzyl)oxy)phenyl)isoxazole-3-carboxylate] |  |  | 90.6 ± 11.5 | 80.8 ± 11.8

Further lines, with some results ahead:

Row | IC50 (purified 5-LO) [µM] | IC50 [1] [µM] | SMILES | activity at 1 µM [1] [%] | activity at 10 µM [1] [%]
6 | 0.48 ± 0.03 | 1.7 ± 0.47 | Cc1ccccc1COc1ccc(-c2onc(C(=O)O)c2-c2ccc(Cl)cc2)cc1 [Compound 9aj, 4-(4-Chlorophenyl)-5-(4-((2-methylbenzyl)oxy)phenyl)isoxazole-3-carboxylic acid] | 74.5 ± 8.6 | 13.1 ± 3.9
7 | 0.38 ± 0.04 | 1.29 ± 0.61 | O=C(O)c1noc(-c2ccc(OCc3cccc(F)c3)cc2)c1-c1ccc(Cl)cc1 [Compound 9bj, 4-(4-Chlorophenyl)-5-(4-((3-fluorobenzyl)oxy)phenyl)isoxazole-3-carboxylic acid] | 52.3 ± 8.3 | 19.6 ± 9.5
8 | 5.94 ± 0.36 | 1.4 ± 0.09 | Cc1ccc(COc2ccc(-c3onc(C(=O)O)c3-c3ccc(Cl)cc3)cc2)cc1 [Compound 9cj, 4-(4-Chlorophenyl)-5-(4-((4-methylbenzyl)oxy)phenyl)isoxazole-3-carboxylic acid] | 55.8 ± 4.31 | 15.7 ± 4.53
9 | 16.3 ± 5.95 | 4.13 ± 0.33 | N#Cc1cccc(COc2ccc(-c3onc(C(=O)O)c3-c3ccc(Cl)cc3)cc2)c1 [Compound 9dj, 4-(4-Chlorophenyl)-5-(4-((3-cyanobenzyl)oxy)phenyl)isoxazole-3-carboxylic acid] | 70 ± 9.14 | 6.91 ± 3.92
10 | 5.01 ± 1.38 | 2.36 ± 0.32 | Cc1cc(OCc2cccc(C#N)c2)ccc1-c1onc(C(=O)O)c1-c1ccc(Cl)cc1 [Compound 9dk, 4-(4-Chlorophenyl)-5-(4-((3-cyanobenzyl)oxy)-2-methylphenyl)isoxazole-3-carboxylic acid] | 77.4 ± 13.2 | 0.42 ± 0.21
11 | 6.11 ± 0.9 | 1.2 ± 0.23 | O=C(O)c1noc(-c2ccc(OCc3ccccc3Cl)cc2)c1-c1ccc(Cl)cc1 [Compound 9ej, 5-(4-((2-chlorobenzyl)oxy)phenyl)-4-(4-chlorophenyl)isoxazole-3-carboxylic acid] | 65.7 ± 5.9 | 5.1 ± 1.46
12 | 6.04 ± 0.72 | 0.77 ± 0.19 | O=C(O)c1noc(-c2ccc(OCc3ccccc3C(F)(F)F)cc2)c1-c1ccc(Cl)cc1 [Compound 9fj, 4-(4-Chlorophenyl)-5-(4-((2-(trifluoromethyl)benzyl)oxy)phenyl)isoxazole-3-carboxylic acid] | 52.8 ± 5.94 | 5.5 ± 2.21
13 | 7.39 ± 2.45 | 4.09 ± 0.12 | O=C(O)c1noc(-c2ccc(OCc3ccccn3)cc2)c1-c1ccc(Cl)cc1 [Compound 9gj, 4-(4-Chlorophenyl)-5-(4-(pyridin-2-ylmethoxy)phenyl)isoxazole-3-carboxylic acid] | 82.1 ± 15.2 | 21.3 ± 8.34
